Experimental data published in PubChem BioAssay AID1259407 (Chemical Carcinogenesis Research Information System (CCRIS), 2018).
Activity calls are given as the source filed them. The rule behind the calls is not given here.

Test system: CCRIS mutagenicity, Ames/micronucleus/aberration tests
Test: CCRIS mutagenicity studies
[1] = Test System: AMES SALMONELLA TYPHIMURIUM, Strain/Indicator: TA98, Metabolic Activation: HAMSTER, LIVER, S-9, AROCLOR 1254, Method: PREINCUBATION
[2] = Test System: AMES SALMONELLA TYPHIMURIUM, Strain/Indicator: TA98, Metabolic Activation: NONE, Method: PREINCUBATION
[3] = Test System: AMES SALMONELLA TYPHIMURIUM, Strain/Indicator: TA98, Metabolic Activation: NONE, Method: STANDARD PLATE
[4] = Test System: AMES SALMONELLA TYPHIMURIUM, Strain/Indicator: TA98, Metabolic Activation: RAT, LIVER, S-9, AROCLOR 1254, Method: PREINCUBATION
[5] = Test System: AMES SALMONELLA TYPHIMURIUM, Strain/Indicator: TA100, Metabolic Activation: HAMSTER, LIVER, S-9, AROCLOR 1254, Method: PREINCUBATION
[6] = Test System: AMES SALMONELLA TYPHIMURIUM, Strain/Indicator: TA100, Metabolic Activation: NONE, Method: PREINCUBATION
[7] = Test System: AMES SALMONELLA TYPHIMURIUM, Strain/Indicator: TA100, Metabolic Activation: NONE, Method: STANDARD PLATE
[8] = Test System: AMES SALMONELLA TYPHIMURIUM, Strain/Indicator: TA100, Metabolic Activation: RAT, LIVER, S-9, AROCLOR 1254, Method: PREINCUBATION
[9] = Test System: AMES SALMONELLA TYPHIMURIUM, Strain/Indicator: TA1535, Metabolic Activation: HAMSTER, LIVER, S-9, AROCLOR 1254, Method: PREINCUBATION
[10] = Test System: AMES SALMONELLA TYPHIMURIUM, Strain/Indicator: TA1535, Metabolic Activation: NONE, Method: PREINCUBATION
[11] = Test System: AMES SALMONELLA TYPHIMURIUM, Strain/Indicator: TA1535, Metabolic Activation: RAT, LIVER, S-9, AROCLOR 1254, Method: PREINCUBATION
[12] = Test System: AMES SALMONELLA TYPHIMURIUM, Strain/Indicator: TA1537, Metabolic Activation: HAMSTER, LIVER, S-9, AROCLOR 1254, Method: PREINCUBATION
[13] = Test System: AMES SALMONELLA TYPHIMURIUM, Strain/Indicator: TA1537, Metabolic Activation: NONE, Method: PREINCUBATION
[14] = Test System: AMES SALMONELLA TYPHIMURIUM, Strain/Indicator: TA1537, Metabolic Activation: RAT, LIVER, S-9, AROCLOR 1254, Method: PREINCUBATION
[15] = Test System: AMES SALMONELLA TYPHIMURIUM, Strain/Indicator: TA1537, Metabolic Activation: NONE, Method: STANDARD PLATE

In the case of `C=CCC`, the mutagenic call (Test System: AMES SALMONELLA TYPHIMURIUM, Strain/Indicator: TA98, Metabolic Activation: NONE, Method: GAS EXPOSURE) is reported as “inactive; negative”, the mutagenic call (Test System: AMES SALMONELLA TYPHIMURIUM, Strain/Indicator: TA98, Metabolic Activation: RAT LIVER S-9, PHENOBARBITAL AND BETA-NAPHTHOFLAVONE (40%), Method: GAS EXPOSURE) is reported as “inactive; negative” and the mutagenic call (Test System: AMES SALMONELLA TYPHIMURIUM, Strain/Indicator: TA100, Metabolic Activation: NONE, Method: GAS EXPOSURE) is reported as “inactive; negative”. The mutagenic call (Test System: AMES SALMONELLA TYPHIMURIUM, Strain/Indicator: TA100, Metabolic Activation: RAT LIVER S-9, PHENOBARBITAL AND BETA-NAPHTHOFLAVONE (40%), Method: GAS EXPOSURE) was “inactive; negative”, the mutagenic call (Test System: AMES SALMONELLA TYPHIMURIUM, Strain/Indicator: TA1535, Metabolic Activation: NONE, Method: GAS EXPOSURE) was “inactive; negative” and the mutagenic call (Test System: AMES SALMONELLA TYPHIMURIUM, Strain/Indicator: TA1535, Metabolic Activation: RAT LIVER S-9, PHENOBARBITAL AND BETA-NAPHTHOFLAVONE (40%), Method: GAS EXPOSURE) was “inactive; negative”. The mutagenic call (Test System: AMES SALMONELLA TYPHIMURIUM, Strain/Indicator: TA1537, Metabolic Activation: NONE, Method: GAS EXPOSURE) was “inactive; negative”, the mutagenic call (Test System: AMES SALMONELLA TYPHIMURIUM, Strain/Indicator: TA1537, Metabolic Activation: RAT LIVER S-9, PHENOBARBITAL AND BETA-NAPHTHOFLAVONE (40%), Method: GAS EXPOSURE) was “inactive; negative” and the mutagenic call (Test System: E.COLI, Strain/Indicator: WP2UVRA, Metabolic Activation: NONE, Method: GAS EXPOSURE) was “inactive; negative”. For the same compound, the mutagenic call (Test System: E.COLI, Strain/Indicator: WP2UVRA, Metabolic Activation: RAT LIVER S-9, PHENOBARBITAL AND BETA-NAPHTHOFLAVONE (40%), Method: GAS EXPOSURE) was “inactive; negative”.
In the case of `Clc1cccc(Cl)c1`, the mutagenic call [1] is reported as “inactive; negative”, the mutagenic call [2] is reported as “inactive; negative” and the mutagenic call [3] is reported as “inactive; negative”. The mutagenic call [4] was “inactive; negative”, the mutagenic call (Test System: AMES SALMONELLA TYPHIMURIUM, Strain/Indicator: TA98, Metabolic Activation: RAT, LIVER, S-9, AROCLOR, Method: STANDARD PLATE) was “inactive; negative” and the mutagenic call [5] was “inactive; negative”. The mutagenic call [6] was “inactive; negative”, the mutagenic call [7] was “inactive; negative” and the mutagenic call [8] was “inactive; negative”. The mutagenic call (Test System: AMES SALMONELLA TYPHIMURIUM, Strain/Indicator: TA100, Metabolic Activation: RAT, LIVER, S-9, AROCLOR, Method: STANDARD PLATE) was “inactive; negative”, the mutagenic call [9] was “inactive; negative” and the mutagenic call [10] was “inactive; negative”. For the same compound, the mutagenic call [11] was “inactive; negative”, the mutagenic call [12] was “inactive; negative” and the mutagenic call [13] was “inactive; negative”. For the same compound, the mutagenic call [14] was “inactive; negative”, the mutagenic call (Test System: AMES SALMONELLA TYPHIMURIUM, Strain/Indicator: UTH8413, Metabolic Activation: NONE, Method: STANDARD PLATE) was “inactive; negative” and the mutagenic call (Test System: AMES SALMONELLA TYPHIMURIUM, Strain/Indicator: UTH8413, Metabolic Activation: RAT, LIVER, S-9, AROCLOR, Method: STANDARD PLATE) was “inactive; negative”. The mutagenic call (Test System: AMES SALMONELLA TYPHIMURIUM, Strain/Indicator: UTH8414, Metabolic Activation: NONE, Method: STANDARD PLATE) was “inactive; negative” and the mutagenic call (Test System: AMES SALMONELLA TYPHIMURIUM, Strain/Indicator: UTH8414, Metabolic Activation: RAT, LIVER, S-9, AROCLOR, Method: STANDARD PLATE) was “inactive; negative”.
In the case of `COc1nsc2c([N+](=O)[O-])cccc12`, the mutagenic call [7] is reported as “active; positive”.
With `CN(C)CCNC(=O)c1cccn2cc(-c3ccccc3)nc12` the mutagenic call [15] was “active; positive”.
`COc1ccccc1/C=C/C=C(/C#N)c1ccc(Br)cc1` was tested, and the mutagenic call (Test System: AMES SALMONELLA TYPHIMURIUM, Strain/Indicator: TA97A, Metabolic Activation: NONE, Method: STANDARD PLATE) was “active; positive”.
`CCCCCCCOP(=S)([S-])OCCCCCCC.CCCCCCCOP(=S)([S-])OCCCCCCC.[Zn+2]` was tested, and the mutagenic call [3] was “inactive; negative”, the mutagenic call (Test System: AMES SALMONELLA TYPHIMURIUM, Strain/Indicator: TA98, Metabolic Activation: RAT, LIVER, S-9, Method: STANDARD PLATE) was “inactive; negative” and the mutagenic call [7] was “inactive; negative”. For the same compound, the mutagenic call (Test System: AMES SALMONELLA TYPHIMURIUM, Strain/Indicator: TA100, Metabolic Activation: RAT, LIVER, S-9, Method: STANDARD PLATE) was “inactive; negative”, the mutagenic call (Test System: AMES SALMONELLA TYPHIMURIUM, Strain/Indicator: TA102, Metabolic Activation: NONE, Method: STANDARD PLATE) was “inactive; negative” and the mutagenic call (Test System: AMES SALMONELLA TYPHIMURIUM, Strain/Indicator: TA102, Metabolic Activation: RAT, LIVER, S-9, Method: STANDARD PLATE) was “inactive; negative”.
In the case of `CN(CC(=O)NN)c1ccc2ccccc2c1`, the mutagenic call [3] is reported as “inactive; negative”, the mutagenic call (Test System: AMES SALMONELLA TYPHIMURIUM, Strain/Indicator: TA98, Metabolic Activation: RAT, LIVER, S-9, AROCLOR 1254, Method: STANDARD PLATE) is reported as “inactive; negative” and the mutagenic call [7] is reported as “inactive; negative”. The mutagenic call (Test System: AMES SALMONELLA TYPHIMURIUM, Strain/Indicator: TA100, Metabolic Activation: RAT, LIVER, S-9, AROCLOR 1254, Method: STANDARD PLATE) was “inactive; negative”, the mutagenic call [15] was “inactive; negative” and the mutagenic call (Test System: AMES SALMONELLA TYPHIMURIUM, Strain/Indicator: TA1537, Metabolic Activation: RAT, LIVER, S-9, AROCLOR 1254, Method: STANDARD PLATE) was “inactive; negative”.
In the case of `C=CC1CC=CCC1` (stereo not given), the mutagenic call (Test System: AMES SALMONELLA TYPHIMURIUM, Strain/Indicator: TA98, Metabolic Activation: HAMSTER, LIVER, S-9, AROCLOR 1254 (10%), Method: PREINCUBATION) is reported as “inactive; negative”, the mutagenic call [1] is reported as “inactive; negative” and the mutagenic call [2] is reported as “inactive; negative”. The mutagenic call (Test System: AMES SALMONELLA TYPHIMURIUM, Strain/Indicator: TA98, Metabolic Activation: RAT, LIVER, S-9, AROCLOR 1254 (10%), Method: PREINCUBATION) was “inactive; negative”, the mutagenic call [4] was “inactive; negative” and the mutagenic call (Test System: AMES SALMONELLA TYPHIMURIUM, Strain/Indicator: TA100, Metabolic Activation: HAMSTER, LIVER, S-9, AROCLOR 1254 (10%), Method: PREINCUBATION) was “inactive; negative”. The mutagenic call [5] was “inactive; negative”, the mutagenic call [6] was “inactive; negative” and the mutagenic call (Test System: AMES SALMONELLA TYPHIMURIUM, Strain/Indicator: TA100, Metabolic Activation: RAT, LIVER, S-9, AROCLOR 1254 (10%), Method: PREINCUBATION) was “inactive; negative”. The mutagenic call [8] was “inactive; negative”, the mutagenic call (Test System: AMES SALMONELLA TYPHIMURIUM, Strain/Indicator: TA1535, Metabolic Activation: HAMSTER, LIVER, S-9, AROCLOR 1254 (10%), Method: PREINCUBATION) was “inactive; negative” and the mutagenic call [9] was “inactive; negative”. For the same compound, the mutagenic call [10] was “inactive; negative”, the mutagenic call (Test System: AMES SALMONELLA TYPHIMURIUM, Strain/Indicator: TA1535, Metabolic Activation: RAT, LIVER, S-9, AROCLOR 1254 (10%), Method: PREINCUBATION) was “inactive; negative” and the mutagenic call [11] was “inactive; negative”. For the same compound, the mutagenic call (Test System: AMES SALMONELLA TYPHIMURIUM, Strain/Indicator: TA1537, Metabolic Activation: HAMSTER, LIVER, S-9, AROCLOR 1254 (10%), Method: PREINCUBATION) was “inactive; negative”, the mutagenic call [12] was “inactive; negative” and the mutagenic call [13] was “inactive; negative”. The mutagenic call (Test System: AMES SALMONELLA TYPHIMURIUM, Strain/Indicator: TA1537, Metabolic Activation: RAT, LIVER, S-9, AROCLOR 1254 (10%), Method: PREINCUBATION) was “inactive; negative” and the mutagenic call [14] was “inactive; negative”.
